The values below come from patent US9115092B2, “Substituted quinazoline and pyrido-pyrimidine derivatives” (Asana Biosciences, LLC, priority 2010, dated 2015).

For assay [1], the target named is T1, mTOR kinase (Homo sapiens, UniProt P42345).
T1 construct: purchased Millipore, USA
Kind of assay: mTOR kinase TR-FRET assay. In kind it is biochemical. Particulars: read-out: mTO R. The essentials:
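Compounds preincubated 60 min with mTOR (5 ng) in HEPES pH 7.5, EGTA, MnCl2; ULight-p70 S6K Thr389 peptide (50 nM) and ATP (20 μM) then added, 60 min at room temperature. EDTA-stopped, Eu-anti-phospho antibody detection by TR-FRET (665/615 nm); IC50 from variable-slope sigmoidal fit.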
On the technique in general: Time-resolved FRET reads energy transfer from a long-lived donor to a nearby acceptor.

Assay [2] has as its target T2, PI3Kα (wild-type), P110/P85α (Homo sapiens, UniProt P42336).
T2 construct: made in house; host or cells: SF9 insect cells
In words: PI3 Kinase TR-FRET assay, PI3Kα (wild-type). In kind it is biochemical. The gist of the method:
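Sf9-expressed His-purified P110/P85α (5 ng) preincubated 60 min RT with compound and PIP2 in buffer with 40 mM MgCl2, 5 mM DTT; reaction started with ATP (PIP2 and ATP both 10 μM), 30 min RT. PIP3 detected by TR-FRET displacement, 665/615 nm ratio; IC50 from dose-response curves.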

Assay [3] has as its system pS6RP(S235/236), PC3 cells. In words: In-cell Western assay, pS6RP(S235/236) in PC3 cells. In kind it is cell-based, human. The gist of the method: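 Overnight-seeded PC3 cells were treated 2 h with serially diluted compound, then fixed and immunostained with phospho-specific primary antibodies and Eu-labelled secondary. Time-resolved Eu signal read at 615 nm (ex 340 nm), normalised by Hoechst 33258 staining (ex 355/em 460 nm); IC50 from sigmoidal dose-response fit.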

The subject of assay [4] is PC3 cells. In words: XTT assay for cell viability, PC3 cells. The format is cell-based, human. Particulars: Homo sapiens, PC-3, cell viability. The essentials: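 PC3 cells seeded at 1000 cells/well, grown 24 h, then exposed to serial dilutions of compound for 96 h. Viability read by XTT dye at 37° C, absorbance 465 nm. EC50 from sigmoidal dose-response fit.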
For orientation: Formazan colour is commonly taken as a measure of viable cells.

The mark [5] stands for this setting: Homo sapiens, PC-3, In-cell Western.

Structures are written as SMILES. pIC50: −log10 of the molar value.

T2 sequence (P42336 whole entry): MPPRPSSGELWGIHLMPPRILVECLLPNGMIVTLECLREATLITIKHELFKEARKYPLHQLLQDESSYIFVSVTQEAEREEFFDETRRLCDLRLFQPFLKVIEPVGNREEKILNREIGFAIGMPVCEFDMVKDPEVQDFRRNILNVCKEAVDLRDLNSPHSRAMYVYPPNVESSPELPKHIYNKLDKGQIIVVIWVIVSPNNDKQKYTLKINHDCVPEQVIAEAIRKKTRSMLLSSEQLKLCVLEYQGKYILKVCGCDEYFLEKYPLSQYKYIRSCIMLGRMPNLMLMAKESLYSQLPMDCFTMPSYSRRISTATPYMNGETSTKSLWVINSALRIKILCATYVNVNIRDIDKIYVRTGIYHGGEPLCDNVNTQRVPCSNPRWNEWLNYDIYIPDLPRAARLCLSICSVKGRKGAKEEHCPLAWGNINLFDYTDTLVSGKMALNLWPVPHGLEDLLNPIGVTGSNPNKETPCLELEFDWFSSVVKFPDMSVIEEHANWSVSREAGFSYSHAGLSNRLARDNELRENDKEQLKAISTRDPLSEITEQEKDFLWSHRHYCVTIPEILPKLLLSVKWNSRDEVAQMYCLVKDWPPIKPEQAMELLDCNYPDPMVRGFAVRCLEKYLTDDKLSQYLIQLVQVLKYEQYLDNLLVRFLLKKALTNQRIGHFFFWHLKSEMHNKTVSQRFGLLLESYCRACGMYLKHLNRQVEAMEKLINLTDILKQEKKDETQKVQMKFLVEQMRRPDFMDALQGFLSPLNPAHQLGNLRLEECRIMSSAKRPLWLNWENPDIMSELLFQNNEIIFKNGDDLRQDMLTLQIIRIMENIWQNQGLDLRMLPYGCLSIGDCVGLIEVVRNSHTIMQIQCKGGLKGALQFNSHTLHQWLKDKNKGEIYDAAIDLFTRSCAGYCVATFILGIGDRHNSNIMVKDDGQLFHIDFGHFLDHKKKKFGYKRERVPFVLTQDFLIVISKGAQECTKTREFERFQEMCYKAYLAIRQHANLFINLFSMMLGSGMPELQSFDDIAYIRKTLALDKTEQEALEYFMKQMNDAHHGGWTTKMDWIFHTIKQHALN
T2 sequence (P27986 whole entry partner): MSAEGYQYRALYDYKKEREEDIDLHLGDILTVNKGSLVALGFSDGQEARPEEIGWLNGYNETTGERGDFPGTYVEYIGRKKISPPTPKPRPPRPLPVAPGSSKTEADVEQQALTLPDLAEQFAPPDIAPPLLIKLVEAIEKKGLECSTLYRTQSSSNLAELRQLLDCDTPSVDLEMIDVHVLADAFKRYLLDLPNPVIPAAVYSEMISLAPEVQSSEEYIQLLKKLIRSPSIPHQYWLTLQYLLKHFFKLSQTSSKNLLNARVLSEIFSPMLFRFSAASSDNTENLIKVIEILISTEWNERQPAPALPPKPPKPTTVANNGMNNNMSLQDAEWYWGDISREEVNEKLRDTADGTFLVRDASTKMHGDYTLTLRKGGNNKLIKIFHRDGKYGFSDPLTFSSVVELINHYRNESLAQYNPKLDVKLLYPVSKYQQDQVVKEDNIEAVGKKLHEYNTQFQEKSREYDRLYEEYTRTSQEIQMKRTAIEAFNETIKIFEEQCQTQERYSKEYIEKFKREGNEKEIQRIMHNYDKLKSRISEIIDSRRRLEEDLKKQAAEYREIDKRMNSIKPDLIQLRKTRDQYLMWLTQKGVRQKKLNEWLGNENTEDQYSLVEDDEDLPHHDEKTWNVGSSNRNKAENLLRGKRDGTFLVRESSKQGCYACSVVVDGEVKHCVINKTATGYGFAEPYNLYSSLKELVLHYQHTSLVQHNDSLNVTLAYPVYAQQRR

Turning to `CN(C)C(=O)c1ccc(NC(=O)Nc2ccc(-c3nc(N4CCOCC4)c4ccc(-c5cncnc5)cc4n3)cc2)cc1` [Example 1, N,N-Dimethyl-4-(3-{4-[4-morpholin-4-yl-7-pyrimidin-5-yl-quinazolin-2-yl)-phenyl]-ureido}-benzamide], the pIC50 in assay [1] was more than 7.30; in assay [2] it was more than 7.30; in assay [3] (setting [5]) it was more than 7.00; in assay [4] it was 6.30 to 7.00.

Turning to `Cc1ccc(-c2ccc3c(N4CCOCC4)nc(-c4ccc(NC(=O)Nc5ccc(C(=O)N(C)C)cc5)cc4)nc3c2)o1` [Example 2, N,N-Dimethyl-4-(3-{4-[7-(5-methyl-furan-2-yl)-4-morpholin-4-yl-quinazolin-2-yl]-phenyl}-ureido)-benzamide], the pIC50 in assay [1] is more than 7.30; in assay [2], more than 7.30; in assay [3] (setting [5]), 6.30 to 7.00; in assay [4] it was more than 7.00.

Turning to `CN(C)C(=O)c1ccc(NC(=O)Nc2ccc(-c3nc(N4CCOCC4)c4ccc(-c5ccco5)cc4n3)cc2)cc1` [Example 51, 4-{3-[4-(7-furan-2-yl-4-morpholin-4-yl-quinazolin-2-yl)-phenyl]-ureido}-N,N-dimethyl-benzamide], the pIC50 is more than 7.30 in assay [1], more than 7.30 in assay [2], 5.30 to 6.30 in assay [3] (In-cell Western) and 6.30 to 7.00 in assay [4].

With `CN(C)C(=O)c1ccc(NC(=O)Nc2ccc(-c3nc(N4CCOCC4)c4ccc(-c5cncnc5)cc4n3)cc2)c(F)c1` [Example 133, 3-fluoro-N,N-dimethyl-4-(3-(4-(4-morpholino-7-(pyrimidin-5-yl)quinazolin-2-yl)phenyl)ureido)-benzamide], the pIC50 in assay [1] is more than 7.30; in assay [2] it was more than 7.30; in assay [3] (setting [5]), 5.00 to 6.70; in assay [4] it was 5.00 to 6.70.

Take `CN(C)C(=O)c1ccc(NC(=O)Nc2ccc(-c3nc(N4CCOCC4)c4ccc(-c5cccnc5F)cc4n3)cc2)c(F)c1` [Example 146, 3-fluoro-4-(3-(4-(7-(2-fluoropyridin-3-yl)-4-morpholino-quinazolin-2-yl)phenyl)ureido)-N,N-dimethyl-benzamide]: the pIC50 in assay [1] is more than 7.30; in assay [2] it was 6.70 to 7.30; in assay [4], 5.00 to 6.70.

As to `CN(C)C(=O)c1ccc(NC(=O)Nc2ccc(-c3nc(N4CCOCC4)c4ccc(-c5cccnc5)cc4n3)cc2)c(F)c1` [Example 152, 3-fluoro-N,N-dimethyl-4-(3-(4-(4-morpholino-7-(pyridin-3-yl)quinazolin-2-yl)phenyl)ureido)-benzamide], the pIC50 in assay [1] was more than 7.30; in assay [2], more than 7.30; in assay [4], more than 7.00.
